From article PMC8305768, “Design, Synthesis and Antiparasitic Evaluation of Click Phospholipids” (Molecules, 2021)
Where a name gives a salt, the structure may show the parent alone.

System: PMA-differentiated THP-1 cells
Experiment: Cytotoxicity against THP-1 macrophages (MTT)
Type: cell-based
Settings: PMA-differentiated THP-1 macrophages, 72 h, read-out: Toxicity CC50 ± SD Or CC50 Interval Estimation
Experimental: The effect of compounds selected compounds on THP-1-derived macrophages was assessed by the colorimetric MTT assay (3-(4,5-dimethylthiazol-2-yl)-2,5-diphenyl tetrazolium bromide). Briefly, 1 × 10^5 THP-1 cells/mL were differentiated into macrophages by addition of 20 ng/mL of phorbol-myristate 13-acetate (PMA, Sigma, Saint Louis, MI, USA) for 18 h, followed by replacement with fresh medium for 24 h. Cells were incubated with 100 µL of compounds ranging from 100 to 1 µM after dilution in the RPMI complete medium containing a maximum amount of 1% DMSO. After incubation for 72 h, the medium was removed and 100 µL of 0.5 mg/mL MTT solution diluted in RPMI was added. Plates were incubated for an additional 4 h to allow viable cells to convert MTT into a purple formazan product. Solubilization of formazan crystals was achieved by the addition of 2-propanol and absorbance was read at 570 nm using a Synergy 2 Multi-Mode Reader (Biotek, Winooski, VT, USA). Cytotoxicity was evaluated by the determination of the CC50 value (drug concentration that reduced the percentage of viable cells in 50%) and calculated by non-linear regression analysis using GraphPad Prism version 8.1.1 for Windows (GraphPad Software, San Diego, CA, USA).

SMILES: CCCCCCCCc1noc(CCCCCCCCCCOP(=O)([O-])OCC[N+](C)(C)C)n1 [Compound 54, 10-(3-octyl-1,2,4-oxadiazol-5-yl)decyl (2-(trimethylammonio)ethyl) phosphate inner salt]
- CC50: 10.8 µM
